The text below walks through data of ChEMBL document CHEMBL2046330, “Structure-based design of novel benzoxazinorifamycins with potent binding affinity to wild-type and rifampin-resistant mutant Mycobacterium tuberculosis RNA polymerases” (J Med Chem, 2012).

In experiment [1] the test system is Mycobacterium tuberculosis. Kind of experiment: Ratio of rifalazil IC50 to compound IC50 for Mycobacterium tuberculosis RNA polymerase S450L mutant in the presence of sigmaA factor.
Experiment [2] can be described thus: Inhibition of Mycobacterium tuberculosis RNA polymerase S450L mutant by rolling circle transcription assay in the presence of sigmaA factor.
In experiment [3] the test system is Mycobacterium tuberculosis. Kind of experiment: Ratio of rifalazil IC50 to compound IC50 for Mycobacterium tuberculosis RNA polymerase D435V mutant in the presence of sigmaA factor.
Experiment [4] can be described thus: Inhibition of Mycobacterium tuberculosis RNA polymerase D435V mutant by rolling circle transcription assay in the presence of sigmaA factor.
The nature of experiment [5]: Inhibition of Mycobacterium tuberculosis RNA polymerase H445Y mutant by rolling circle transcription assay in the presence of sigmaA factor.
Experiment [6] can be described thus: Inhibition of Mycobacterium tuberculosis RNA polymerase S450L mutant by rolling circle transcription assay in the absence of sigmaA factor.
A short description of experiment [7]: Inhibition of Mycobacterium tuberculosis RNA polymerase H445Y mutant by rolling circle transcription assay in the absence of sigmaA factor.
Experiment [8] can be described thus: Inhibition of Mycobacterium tuberculosis RNA polymerase D435V mutant by rolling circle transcription assay in the absence of sigmaA factor.

For orientation: IC50 means the concentration needed to halve the response being measured. For `CO[C@H]1/C=C/O[C@@]2(C)Oc3c(C)c(O)c4c(=O)c(c5oc6cccc(OCCCCN7CCN(CCn8ccnc8)CC7)c6nc-5c4c3C2=O)NC(=O)/C(C)=C\C=C\[C@H](C)[C@H](O)[C@@H](C)[C@@H](O)[C@@H](C)[C@H](OC(C)=O)[C@@H]1C`, the Ratio IC50 in experiment [1] turned out to be 7; in experiment [3] it was 26. Also, the IC50 in experiment [2] was 18 µM; in experiment [4], 9 µM; in experiment [5], 437 µM.
For `CCN(CC)CCOc1cccc2oc3c4c(=O)c5c(O)c(C)c6c(c5c-3nc12)C(=O)[C@@](C)(O/C=C/[C@H](OC)[C@@H](C)[C@@H](OC(C)=O)[C@H](C)[C@H](O)[C@H](C)[C@@H](O)[C@@H](C)/C=C/C=C(/C)C(=O)N4)O6`, in that order: 7, 26, 16 µM, 20 µM and 171 µM.
Take `CO[C@H]1/C=C/O[C@@]2(C)Oc3c(C)c(O)c4c(=O)c(c5oc6cc(N7CCN(CC(C)C)CC7)cc(O)c6nc-5c4c3C2=O)NC(=O)/C(C)=C\C=C\[C@H](C)[C@H](O)[C@@H](C)[C@@H](O)[C@@H](C)[C@H](OC(C)=O)[C@@H]1C` [RIFALAZIL]: the IC50 in experiment [2] stood at 117 µM; in experiment [4] it was 541 µM; in experiment [5], 172 µM.
For the compound `CO[C@H]1/C=C/O[C@@]2(C)Oc3c(C)c(O)c4c(=O)c(c5oc6cccc(OCCCCN7CCN(C(=O)Cn8ccnc8)CC7)c6nc-5c4c3C2=O)NC(=O)/C(C)=C\C=C\[C@H](C)[C@H](O)[C@@H](C)[C@@H](O)[C@@H](C)[C@H](OC(C)=O)[C@@H]1C`, the half-maximal inhibitory concentration (IC50) in experiment [2] was 122 µM; in experiment [4] it was 13 µM; in experiment [5], 574 µM. Also, the Ratio IC50 in experiment [3] is 26.
Regarding `CO[C@H]1/C=C/O[C@@]2(C)Oc3c(C)c(O)c4c(O)c(c(/C=N/N5CCN(C)CC5)c(O)c4c3C2=O)NC(=O)/C(C)=C\C=C\[C@H](C)[C@H](O)[C@@H](C)[C@@H](O)[C@@H](C)[C@H](OC(C)=O)[C@@H]1C` [RIFAMPIN], the IC50 in experiment [6] amounted to 126 µM; in experiment [7], 830 µM; in experiment [8] it was 313 µM.
